Test results from patent publication US20170057954A1, “SUBSTITUTED IMIDAZO[1,2-A]PYRIDINECARBOXAMIDES AND THEIR USE” (Bayer Pharma Aktiengesellschaft, priority 2014, published 2017).

test system: recombinant guanylate cyclase reporter cell line; test: Effect on a recombinant guanylate cyclase reporter cell line; type: cell-based; settings: in some cases mean values for individual determinations, read-out: MEC (minimum effective concentration)
Procedure: B-2. Effect on a Recombinant Guanylate Cyclase Reporter Cell Line
The cellular activity of the compounds according to the invention is determined using a recombinant guanylate cyclase reporter cell line, as described in F. Wunder et al., Anal. Biochem. 339, 104-112 (2005).
Representative MEC values (MEC=minimum effective concentration) for the compounds of the invention are shown in the table below (in some cases as mean values for individual determinations): […]

Compound	minimal effective concentration [µM]
Cc1cc(OCc2c(F)cccc2F)c2nc(C)c(C(=O)NOC(C)c3ccccc3)n2c1 (racemic) [Example 78, rac-8-[(2,6-Difluorobenzyl)oxy]-2,6-dimethyl-N-(1-phenylethoxy)imidazo[1,2-a]pyridine-3-carboxamide]	1
Cc1cc(OCc2c(F)cccc2F)c2nc(C)c(C(=O)NOCCO)n2c1 [Example 1, 8-[(2,6-Difluorobenzyl)oxy]-N-(2-hydroxyethoxy)-2,6-dimethylimidazo[1,2-a]pyridine-3-carboxamide]	0.3
Cc1cc(OCc2c(F)cccc2F)c2nc(C)c(C(=O)NOCCN(C)C)n2c1 [Example 2]	1
Cc1cc(OCc2c(F)cccc2F)c2nc(C)c(C(=O)NOCC(=O)NCc3ccc(Cl)cc3)n2c1 [Example 4]	3
Cc1cc(OCc2c(F)cccc2F)c2nc(C)c(C(=O)NOCC(=O)N3CCN(c4ccccc4)CC3)n2c1 [Example 5]	10
Cc1cc(OCc2c(F)cccc2F)c2nc(C)c(C(=O)NOC3COC3)n2c1 [Example 6]	1
Cc1cc(OCc2c(F)cccc2F)c2nc(C)c(C(=O)NOCCN)n2c1 [Example 7, N-(2-Aminoethoxy)-8-[(2,6-difluorobenzyl)oxy]-2,6-dimethylimidazo[1,2-a]pyridine-3-carboxamide hydrate]	1
Cc1cc(OCc2c(F)cccc2F)c2nc(C)c(C(=O)NOCC3CCCN3)n2c1 (stereo not drawn) [Example 8]	3
Cc1cc(OCc2c(F)cccc2F)c2nc(C)c(C(=O)NOCC(N)C(C)C)n2c1 (stereo not drawn) [Example 9]	1
Cc1cc(OCc2c(F)cccc2F)c2nc(C)c(C(=O)NOC[C@H](O)CO)n2c1 [Example 11, 8-[(2,6-Difluorobenzyl)oxy]-N-{[(2R)-2,3-dihydroxypropyl]oxy}-2,6-dimethylimidazo[1,2-a]pyridine-3-carboxamide]	1
Cc1cc(OCc2c(F)ccc(F)c2F)c2nc(C)c(C(=O)NN3CCOCC3)n2c1 [Example 12, 2,6-Dimethyl-N-(morpholin-4-yl)-8-[(2,3,6-trifluorobenzyl)oxy]imidazo[1,2-a]pyridine-3-carboxamide]	1
Cc1cc(OC(C)c2c(F)cccc2F)c2nc(C)c(C(=O)NOCCO)n2c1 (stereo not drawn) [Example 13]	10
O=C(NOCCO)c1cnc2c(OCc3c(F)cccc3F)cccn12 [Example 14]	10
Cc1nc2c(OCC3CCCCC3)cccn2c1C(=O)NN1CCOCC1 [Example 15]	1
CCCc1nc2c(OCc3c(F)cccc3F)cc(C)cn2c1C(=O)NN1CCOCC1 [Example 17]	10
CCc1nc2c(OCc3c(F)cccc3F)cc(C)cn2c1C(=O)NN1CCOCC1 [Example 20]	1
COc1cc(OCc2c(F)cccc2F)c2nc(C)c(C(=O)NN3CCOCC3)n2c1 [Example 21]	3
O=C(NN1CCOCC1)c1cnc2c(OCc3c(F)cccc3F)cccn12 [Example 23]	10
COc1ccc(F)c(COc2cc(C)cn3c(C(=O)NN4CCOCC4)c(C)nc23)c1F [Example 25]	10
Cc1cc(OCc2c(F)ccc(C3CC3)c2F)c2nc(C)c(C(=O)NN3CCOCC3)n2c1 [Example 26]	10
Cc1cc(OCc2c(F)cccc2F)c2nc(C)c(C(=O)NNCC(C)C)n2c1 [Example 27, 8-[(2,6-Difluorobenzyl)oxy]-N′-isobutyl-2,6-dimethylimidazo[1,2-a]pyridine-3-carbohydrazide]	0.3
C=CCONC(=O)c1c(C)nc2c(OCc3c(F)cccc3F)cc(C)cn12 [Example 28]	0.3
CONC(=O)c1c(C)nc2c(OCc3c(F)cccc3F)cc(C)cn12 [Example 29]	1
Cc1cc(OCc2c(F)cccc2F)c2nc(C)c(C(=O)NN3CCN(CCO)CC3)n2c1 [Example 30]	1
